Target: T1, SARS-CoV-2 M^pro (Severe acute respiratory syndrome coronavirus 2, UniProt P0DTD1)
Assay: biochemical
Details: […]; mean ± SD from three experiments

Q: For `O=C(CNC(=O)C1CCC(F)(F)CC1)N[C@H](Cc1ccccc1)C(=O)C(=O)NCc1nccs1` [3n], which IC50 is on record?
A: Its IC50 is 50.3 ± 2.6 nM.

Q: `O=C(COc1ccccc1)N[C@H](Cc1ccccc1)C(=O)C(=O)NCc1nccs1` [3f] was tested. Which IC50 did it give?
A: The IC50 was 880.8 ± 1.2 nM.

Q: For `C[C@@H](NC(=O)C1CCC(F)(F)C1)C(=O)N[C@H](Cc1ccccc1)C(=O)C(=O)NCc1nccs1` (stereo partly shown) [3t], which IC50 is on record?
A: The IC50 was 22.5 ± 0.7 nM.

Q: `O=C(CNC(=O)c1ccc(F)cc1)N[C@H](Cc1ccccc1)C(=O)C(=O)NCc1nccs1` [3m] was tested. Which IC50 did it give?
A: Its IC50 is 348.4 ± 3 nM.

Q: For `O=C(CNC(=O)c1cccc(F)c1)N[C@H](Cc1ccccc1)C(=O)C(=O)NCc1nccs1` [3l], which IC50 is on record?
A: Its IC50 is 538.2 ± 4.3 nM.

Q: How did the IC50 turn out when `COC[C@@H](NC(=O)CC1CC(F)(F)C1)C(=O)N[C@H](Cc1ccccc1)C(=O)C(=O)NCc1nccs1` [3x] was run?
A: Its IC50 is 10.2 ± 0.1 nM.

Q: For `O=C(CNC(=O)C1CCC(F)(F)C1)N[C@H](Cc1ccccc1)C(=O)C(=O)NCc1nccs1` (stereo partly shown) [3p], which IC50 is on record?
A: Its IC50 is 56.5 ± 5.4 nM.

Q: How did the IC50 turn out when `C[C@@H](NC(=O)CC1CC(F)(F)C1)C(=O)N[C@H](Cc1ccccc1)C(=O)C(=O)NCc1nccs1` [3u] was run?
A: Its IC50 is 17.2 ± 0.3 nM.

Q: For `O=C(NCc1nccs1)C(=O)[C@@H](Cc1ccccc1)NC(=O)c1cccc(F)c1` [3b], which IC50 is on record?
A: Its IC50 is 478 ± 4.8 nM.

Q: With `C[C@@H](NC(=O)C1CCCC(F)(F)C1)C(=O)N[C@H](Cc1ccccc1)C(=O)C(=O)NCc1nccs1` (stereo partly shown) [3s] as the molecule, how does the IC50 read?
A: The IC50 was 28.3 ± 0.6 nM.

Q: Which IC50 does the source give for `O=C(CNC(=O)c1ccccc1F)N[C@H](Cc1ccccc1)C(=O)C(=O)NCc1nccs1` [3k] here?
A: Its IC50 is 998.3 ± 0.2 nM.

Q: With `O=C(CNC(=O)C1CCCC(F)(F)C1)N[C@H](Cc1ccccc1)C(=O)C(=O)NCc1nccs1` (stereo partly shown) [3o] as the molecule, how does the IC50 read?
A: Its IC50 is 45.8 ± 2.1 nM.

Q: With `O=C(NCc1nccs1)C(=O)[C@@H](Cc1ccccc1)NC(=O)c1ccccc1F` [3a, (R)-N-(3,4-dioxo-1-phenyl-4-((thiazol-2-ylmethyl)amino)butan-2-yl)-2-fluorobenzamide] as the molecule, how does the IC50 read?
A: Its IC50 is 264 ± 4 nM.

Q: For `COC[C@@H](NC(=O)C1CCC(F)(F)CC1)C(=O)N[C@H](Cc1ccccc1)C(=O)C(=O)NCc1nccs1` [3v], which IC50 is on record?
A: Its IC50 is 18.4 ± 1.3 nM.

Q: With `O=C(Cc1ccccc1)N[C@H](Cc1ccccc1)C(=O)C(=O)NCc1nccs1` [3d] as the molecule, how does the IC50 read?
A: Its IC50 is 949 ± 39.9 nM.

Q: How did the IC50 turn out when `O=C(CC1CC(F)(F)C1)NCC(=O)N[C@H](Cc1ccccc1)C(=O)C(=O)NCc1nccs1` [3q] was run?
A: Its IC50 is 23.4 ± 2.2 nM.

Same assay, conditions: mean ± SD from three experiments

Q: How did the IC50 turn out when `O=C(CNC(=O)c1cccnc1)N[C@H](Cc1ccccc1)C(=O)C(=O)NCc1nccs1` [3j] was run?
A: The IC50 was 2230 ± 370 nM.

Q: For `O=C(NCc1ncon1)C(=O)[C@@H](Cc1ccccc1)NC(=O)c1ccccc1` [1g], which IC50 is on record?
A: The IC50 was 53100 ± 3340 nM.

Q: Which IC50 does the source give for `O=C(NCc1nccs1)C(=O)[C@@H](Cc1cccc(F)c1)NC(=O)c1ccccc1` [2b] here?
A: The IC50 was 2550 ± 20 nM.

Q: With `O=C(CNC(=O)c1ccccc1)N[C@H](Cc1ccccc1)C(=O)C(=O)NCc1nccs1` [3g] as the molecule, how does the IC50 read?
A: The IC50 was 1860 ± 40 nM.

Q: Which IC50 does the source give for `O=C(NCc1cnc(Cl)s1)C(=O)[C@@H](Cc1ccccc1)NC(=O)c1ccccc1` [1j] here?
A: Its IC50 is 95200 ± 5990 nM.

Q: How did the IC50 turn out when `O=C(CCc1ccccc1)N[C@H](Cc1ccccc1)C(=O)C(=O)NCc1nccs1` [3e] was run?
A: The IC50 was 1220 ± 100 nM.

Q: `O=C(NCc1ncco1)C(=O)[C@@H](Cc1ccccc1)NC(=O)c1ccccc1` [1d] was tested. Which IC50 did it give?
A: The IC50 was 51500 ± 940 nM.

Q: Which IC50 does the source give for `O=C(CNC(=O)c1ccccn1)N[C@H](Cc1ccccc1)C(=O)C(=O)NCc1nccs1` [3i] here?
A: Its IC50 is 2240 ± 100 nM.

Q: Which IC50 does the source give for `O=C(NCc1nccs1)C(=O)[C@@H](Cc1ccccc1)NC(=O)c1ccc(F)cc1` [3c] here?
A: The IC50 was 1310 ± 100 nM.

Q: With `O=C(NCc1nccs1)C(=O)[C@@H](Cc1cc(F)c(F)cc1F)NC(=O)c1ccccc1` [2d] as the molecule, how does the IC50 read?
A: The IC50 was 3370 ± 180 nM.

Q: `O=C(NCc1ccon1)C(=O)[C@@H](Cc1ccccc1)NC(=O)c1ccccc1` [1f] was tested. Which IC50 did it give?
A: The IC50 was 54740 ± 350 nM.

Q: With `O=C(NCc1nccs1)C(=O)[C@@H](CC1CCCCC1)NC(=O)c1ccccc1` [2e] as the molecule, how does the IC50 read?
A: The IC50 was 10500 ± 630 nM.

Q: With `Cc1csc(CNC(=O)C(=O)[C@@H](Cc2ccccc2)NC(=O)c2ccccc2)n1` [1i] as the molecule, how does the IC50 read?
A: The IC50 was 40700 ± 1500 nM.

Q: For `O=C(CNC(=O)c1cnccn1)N[C@H](Cc1ccccc1)C(=O)C(=O)NCc1nccs1` [3h], which IC50 is on record?
A: The IC50 was 3620 ± 270 nM.

Q: How did the IC50 turn out when `O=C(NCc1nccs1)C(=O)[C@@H](Cc1ccc(Cl)c(Cl)c1)NC(=O)c1ccccc1` [2g] was run?
A: The IC50 was 2030 ± 70 nM.

Q: How did the IC50 turn out when `O=C(NCc1nccs1)C(=O)[C@@H](Cc1cccc(Cl)c1)NC(=O)c1ccccc1` [2f] was run?
A: The IC50 was 1430 ± 150 nM.

Q: How did the IC50 turn out when `O=C(NCc1nccs1)C(=O)[C@@H](Cc1ccc(F)cc1)NC(=O)c1ccccc1` [2c, (R)-N-(1-(4-fluorophenyl)-3,4-dioxo-4-((thiazol-2-ylmethyl)amino)butan-2-yl)benzamide] was run?
A: Its IC50 is 1950 ± 290 nM.

Q: `O=C(NCc1nccs1)C(=O)[C@@H](Cc1ccccc1)NC(=O)c1ccccc1` [1a, (R)-N-(3,4-dioxo-1-phenyl-4-((thiazol-2-ylmethyl)amino)butan-2-yl)benzamide] was tested. Which IC50 did it give?
A: Its IC50 is 1300 nM.

Q: `O=C(NCc1ccco1)C(=O)[C@@H](Cc1ccccc1)NC(=O)c1ccccc1` [1c] was tested. Which IC50 did it give?
A: Its IC50 is 37200 ± 510 nM.

Q: For `O=C(NCc1cccs1)C(=O)[C@@H](Cc1ccccc1)NC(=O)c1ccccc1` [1b], which IC50 is on record?
A: The IC50 was 77300 ± 2310 nM.

Q: Which IC50 does the source give for `O=C(NCc1nccs1)C(=O)[C@@H](Cc1ccccc1F)NC(=O)c1ccccc1` [2a] here?
A: The IC50 was 3500 ± 230 nM.

Q: How did the IC50 turn out when `O=C(NCc1ncno1)C(=O)[C@@H](Cc1ccccc1)NC(=O)c1ccccc1` [1h] was run?
A: The IC50 was 62300 ± 2070 nM.

Same assay, conditions: read-out: IC50 against SARS-CoV-2 M^pro (FRET); mean ± SD from three experiments

Q: How did the IC50 turn out when `O=C(NCc1cocn1)C(=O)[C@@H](Cc1ccccc1)NC(=O)c1ccccc1` [1e] was run?
A: The IC50 was 11400 ± 80 nM.

Target: T1, SARS-CoV-2 M^pro
Assay: Differential scanning fluorimetry (DSF) assay
Type: binding
Details: mean ± SD (n = 3)
Method: M^pro was mixed with tested compounds and 5 × SYPRO Orange dye (Sigma) avoiding from light. The thermal denaturation spectra were run from 20 °C to 95 °C at a gradient of 1.5 °C/min (CFX96, BioRad). Data were analyzed by Boltzmann model to calculate the melt temperature (Tm). The equation ΔTm = Tm(compound) − Tm(DMSO) was used to calculate the thermal shift (ΔTm). The values are presented as mean ± SD (n = 3).

Q: How did the “thermal shift (ΔTm)” value turn out when `O=C(NCc1nccs1)C(=O)[C@@H](Cc1ccccc1)NC(=O)c1ccccc1` [1a, (R)-N-(3,4-dioxo-1-phenyl-4-((thiazol-2-ylmethyl)amino)butan-2-yl)benzamide] was run?
A: The value was 8.45 ± 0.35 °C.

Source: PMC10018608 (Signal Transduction and Targeted Therapy, 2023)
